Measured values as given in patent US20230338362A1 (priority 2020, published 2023).
Where two headings read alike, the source gives them in different places.

Tests used:
Influenza A = assay: In vitro activity against Influenza A, methods analogous to Example 1; type: cell-based
common cold coronavirus = assay: In vitro activity against common cold coronaviruses, methods analogous to Example 1; type: cell-based
[1] = system: macrophages treated with SARS-CoV-2 Spike protein; type: cell-based, human; further: test concentration or dose not given here
MERS-CoV = type: cell-based
[2] = system: macrophages treated with SARS-CoV-2 Spike protein; type: cell-based, human; remark: listed apart in the source; further: test concentration or dose not given here
SARS-CoV = type: cell-based
Influenza B = assay: In vitro activity against Influenza B, methods analogous to Example 1; type: cell-based
[3] = system: VERO-E6 cells enriched for angiotensin converting enzyme 2 receptor (ACE-2); assay: In vitro toxicity, cell viability assay in VERO-E6 cells in the absence of virus; conditions: Table I, positive controls; absence of SARS-CoV-2 virus
SARS-CoV-2 = SARS-CoV-2 inhibition, cell viability assay (CellTiter-Glo) in VERO-E6 cells enriched for ACE-2; type: cell-based
[4] = Severe acute respiratory syndrome coronavirus 2, Vero C1008; Table II, antiviral compounds; VERO-E6 cells enriched for ACE-2 plus SARS-CoV-2; read-out: IC50
[5] = Severe acute respiratory syndrome coronavirus 2, Vero C1008; read-out: IC50 in an in vitro inhibition assay against SARS-CoV-2

| Structure (SMILES) | activity against Influenza A (Influenza A) | activity against common cold coronavirus (common cold coronavirus) | apoptosis by activation of caspase 3 [1] | apoptosis by caspase 3 activation [1] | activity against MERS-CoV (MERS-CoV) | anti-inflammatory cytokines [2] | expression of cytokine modulators / anti-inflammatory cytokines [2] | expression of pro-inflammatory cytokines [2] | pro-inflammatory cytokines [2] | activity against SARS-CoV (SARS-CoV) | activity against Influenza B (Influenza B) | CC50 [3] [µM] | IC50 (SARS-CoV-2; [4]) [µM] | IC50 (SARS-CoV-2; [5]) [µM] | IC50 (SARS-CoV-2; Severe acute respiratory syndrome coronavirus 2, Vero C1008, read-out: IC50 in an in vitro inhibition assay against SARS-CoV-2) [µM] | expression of the anti-inflammatory cytokine IL-10 [2] | multiple pro-inflammatory cytokines [2] |
| --- | --- | --- | --- | --- | --- | --- | --- | --- | --- | --- | --- | --- | --- | --- | --- | --- | --- |
| COc1ccc2cc1Oc1ccc(cc1)C[C@H]1c3cc(c(OC)cc3CCN1C)Oc1c(OC)c(OC)cc3c1[C@H](C2)N(C)CC3 [Tetrandrine, (1S,14S)-9,20,21,25-tetramethoxy-15,30-dimethyl-7,23-dioxa-15,30-diazaheptacyclo[22.6.2.2^3,6.1^8,12.1^14,18.0^27,31.0^22,33]hexatriaconta-3(36),4,6(35),8,10,12(34),18,20,22(33),24,26,31-dodecaene] | active | active | selectively induces apoptosis | induced apoptosis | active | inducing anti-inflammatory cytokines, such as IL-10 | activating expression of the anti-inflammatory cytokine IL-10 | inhibited expression of pro-inflammatory cytokines VEGF, IL-6, IL-8, MIP-1α and MIP-1β | selectively inhibited pro-inflammatory cytokine, such as VEGF, IL-6, IL-8, MIP-1α and MIP-1β | active | active |  |  |  |  |  |  |
| CC(C)=CCc1cc([C@@H]2CCc3ccc(O)cc3O2)c(CC=C(C)C)c(O)c1O [kazinol A, 4-[(2S)-7-hydroxy-3,4-dihydro-2H-chromen-2-yl]-3,6-bis(3-methylbut-2-enyl)benzene-1,2-diol] |  |  | selectively induces apoptosis | induced apoptosis |  | inducing anti-inflammatory cytokines such as IL-10 | activated expression of cytokine modulator IL-10 | inhibited expression of pro-inflammatory cytokines IL-1α, IL-4, IL-8, MIP-1β and MMP-9 | selectively inhibited pro-inflammatory cytokine, such as IL-1α, IL-4, IL-8, MIP-1β and MMP-9 |  |  |  |  |  |  |  |  |
| CCC(CC)COC(=O)[C@H](C)N[P@](=O)(OC[C@H]1O[C@@](C#N)(c2ccc3c(N)ncnn23)[C@H](O)[C@@H]1O)Oc1ccccc1 [Remdesivir, remdesivir, reference compound] |  |  |  |  |  |  |  |  |  |  |  | > 30 |  |  |  |  |  |
| COc1ccc(-c2coc3cc(O)ccc3c2=O)cc1 [formononetin, 7-hydroxy-3-(4-methoxyphenyl)chromen-4-one] |  |  | selectively induces apoptosis | induced apoptosis |  | inducing anti-inflammatory cytokines, such as IL-10 and IFN-γ | activated expression of cytokine modulators IL-10 and IFN-γ | inhibited expression of pro-inflammatory cytokines VEGF, IL-6, IL-8, GRO, MCP-1, MIP-1α, MIP-1β, MMP-9 and RANTES | selectively inhibited pro-inflammatory cytokine, such as VEGF, IL-6, IL-8, GRO, MCP-1, MIP-1α, MIP-1β, MMP-9 and RANTES |  |  |  |  |  |  |  |  |
| CN(C)CCCSc1ccccc1NC(=O)/C=C/c1ccccc1 [Cinanserin, cinanserin] | active | active |  |  | active |  |  |  |  | active | active |  | 13.7 | 13.7 |  |  |  |
| CC(C)=CCc1cc(C(=O)/C=C/c2ccc(O)cc2)c(O)cc1O [Bavachalcone B] | active | active |  |  | active |  |  |  |  | active | active |  | 1.43 | 1.43 |  |  |  |
| CCOC(=O)[C@H]1O[C@@H]1C(=O)N[C@@H](CC(C)C)C(=O)NCCC(C)C [E64d (aloxistatin), aloxistatin, reference compound] |  |  |  |  |  |  |  |  |  |  |  | > 30 |  |  |  |  |  |
| O=c1cc(-c2ccccc2)oc2cc(O)c(O)c(O)c12 [baicalein, 5,6,7-trihydroxy-2-phenylchromen-4-one] |  |  | selectively induces apoptosis | induced apoptosis |  | inducing anti-inflammatory cytokines such as IL-10 | activated expression of cytokine modulators IL-10 and IFN-γ | inhibited expression of pro-inflammatory cytokines IL-1α, IL-8, GRO, MCP-1, MIP-1α, MIP-1β, MMP-9 and TNF-α | selectively inhibited pro-inflammatory cytokine, such as IL-1α, IL-8, GRO, MCP-1, MIP-1α, MIP-1β, MMP-9 and TNF-α |  |  |  |  |  |  |  |  |
| COc1ccc2cc1Oc1ccc(cc1)C[C@H]1c3cc(c(OC)cc3CCN1C)Oc1c(O)c(OC)cc3c1[C@H](C2)N(C)CC3 [Fangchinoline, (1S,14S)-9,20,25-trimethoxy-15,30-dimethyl-7,23-dioxa-15,30-diazaheptacyclo[22.6.2.2^3,6.1^8,12.1^14,18.0^27,31.0^22,33]hexatriaconta-3(36),4, 6(35),8,10,12(34),18,20,22(33),24,26,31-dodecaen-21-ol] | active | active | selectively induces apoptosis | induced apoptosis | active |  |  | inhibited expression of pro-inflammatory cytokines VEGF, IL-8, MIP-1β and MMP-9 | selectively inhibited pro-inflammatory cytokines, such as VEGF, IL-8, GRO, MIP-1β and MMP-9 | active | active |  | 2.05 | 2.05 |  |  |  |
| O=C(/C=C/c1ccccc1)Nc1ccccc1 [cinnamanilide, (E)-N,3-diphenylprop-2-enamide] |  |  |  |  |  | inducing anti-inflammatory cytokines such as IL-10 | activated expression of cytokine modulator IL-10 | inhibited expression of pro-inflammatory cytokines IL-1α, VEGF, IL-6, IL-8, IL-13, GM-CSF, MIP-1α, MIP-1β, MMP-9 and RANTES | selectively inhibited pro-inflammatory cytokine, such as IL-1α, VEGF, IL-6, IL-8, IL-13, GM-CSF, MIP-1α, MIP-1β, MMP-9 and RANTES |  |  |  |  |  |  |  |  |
| COc1cc(O)cc(O)c1C(=O)/C=C/c1ccc(O)cc1 [Helichrysetin, (E)-1-(2,4-dihydroxy-6-methoxyphenyl)-3-(4-hydroxyphenyl)prop-2-en-1-one] | active | active | selectively induces apoptosis | not observed to induce apoptosis | active | inducing anti-inflammatory cytokines such as IL-10 | activated expression of cytokine modulator IL-10 | inhibited expression of pro-inflammatory cytokines IL-1α, VEGF, IL-1β, IL-4, IL-5, IL-6, IL-8, IL-12p70, IL-13, MCP-1, MIP-1α, MIP-1β, MMP-9 and TNF-α | selectively inhibited pro-inflammatory cytokine, such as IL-1α, VEGF, IL-1β, IL-4, IL-5, IL-6, IL-8, IL-12p70, IL-13, MCP-1, MIP-1α, MIP-1β, MMP-9 and TNF-α | active | active |  | 10.4 | 10.4 |  |  |  |
| O=C(/C=C/c1ccc(O)c(O)c1)O[C@H](Cc1ccc(O)c(O)c1)C(=O)O [Rosmarinic acid] | active | active |  |  | active |  |  |  |  | active | active |  | 0.89 |  | 0.89 |  |  |
| O=C(O)[C@H]1O[C@@H](Oc2cc3oc(-c4ccccc4)cc(=O)c3c(O)c2O)[C@H](O)[C@@H](O)[C@@H]1O [Baicalin, baicalin] | active | active |  |  | active |  |  |  |  | active | active |  | 5.96 | 5.96 |  |  |  |
| COc1ccc2cc1Oc1ccc(cc1)C[C@H]1c3c(cc4c(c3Oc3cc5c(cc3OC)CCN(C)[C@@H]5C2)OCO4)CCN1C [Cepharanthine, (14S,27S)-22,33-dimethoxy-13,28-dimethyl-2,5,7,20-tetraoxa-13,28-diazaoctacyclo[25.6.2.2^16,19.1^3,10.1^21,25.0^4,8.0^31,35.0^14,39]nonatri-aconta-1(33),3(39),4(8),9,16(38),17,19(37),21,23,25(36),31,34-dodecaene] | active | active | selectively induces apoptosis | induced apoptosis | active | inducing anti-inflammatory cytokines such as IL-10 | activating expression of the anti-inflammatory cytokine IL-10 | inhibited expression of pro-inflammatory cytokines VEGF, IL-6, IL-8, GRO, MIP-1α, MIP-1β and MMP-9 | selectively inhibited pro-inflammatory cytokine, such as VEGF, IL-6, IL-8, GRO, MIP-1α, MIP-1β and MMP-9 | active | active |  | 0.51 | 0.51 |  | increasing expression of the anti-inflammatory cytokine IL-10 | suppressed multiple pro-inflammatory cytokines such as IL-1β, TNF-α, IL-6 IL-8, IL-12, MCP-1 and MIP-1α |
